Assay results: patent US8048825B2, “Haloalkylsulfonanilide derivatives or salt thereof, herbicide comprising the derivatives as active ingredient, and use of the herbicide” (Nihon Nohyaku Co., Ltd., priority 2006, dated 2011)

Columns and labels:
Assay type in all cases: in vivo
Scirpus juncoides [1] = test: Herbicidal efficacy on paddy field weeds of pre-emergence stage (Pre), Test Example 1; details: 1000 g/ha as active ingredient, examined after 21 days
Summary of the method: (§1)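 Pre-emergence paddy test: 1000 g/ha active ingredient, formulated and water-diluted, dropped onto 5 cm floodwater one day after sowing both weeds in clay loam. After 21 days in greenhouse, inhibition relative to untreated control rated on 0 (0%) to 5 (100%) scale.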

Lindernia procumbens [2] = test: as above; details: 1000 g/ha as active ingredient, examined after 21 days
Summary of the method: as §1

Scirpus juncoides [3] = test: Herbicidal effect on paddy field weeds of post-emergence stage (Post), Test Example 2; details: one-leaf stage, 1000 g/ha as active ingredient, examined after 21 days
Summary of the method: (§2)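 Post-emergence paddy test: formulated compound added to 5 cm standing water at 1000 g/ha a.i. when weeds reached one-leaf stage in clay loam pots in greenhouse. Growth inhibition rated 21 days later versus untreated control on a 0 (0%) to 5 (100%) scale.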

Lindernia procumbens [4] = test: as above; details: one-leaf stage, 1000 g/ha as active ingredient, examined after 21 days
Summary of the method: as §2

Echinochloa crus-galli = test: as above; details: one-leaf stage, 1000 g/ha as active ingredient, examined after 21 days
Summary of the method: as §2

Row | Structure (SMILES) | Scirpus juncoides pre (herbicidal effect) (Scirpus juncoides [1]) | Lindernia procumbens pre (herbicidal effect) (Lindernia procumbens [2]) | Scirpus juncoides post (herbicidal effect) (Scirpus juncoides [3]) | Lindernia procumbens post (herbicidal effect) (Lindernia procumbens [4]) | Echinochloa crus-galli post (herbicidal effect) (Echinochloa crus-galli)
1 | COC(=O)N(c1ccccc1CN1CCC(C)COC1=O)S(=O)(=O)C(F)(F)F (racemic) [2-24] | 4 (90%-99% herbicidal effect, phytotoxicity) | 4 (90%-99% herbicidal effect, phytotoxicity) | 4 (90%-99% herbicidal effect, phytotoxicity) | 4 (90%-99% herbicidal effect, phytotoxicity) | 4 (90%-99% herbicidal effect, phytotoxicity)
2 | CCOC(=O)N(c1ccccc1CN1CCC(C)COC1=O)S(=O)(=O)C(F)(F)F (racemic) [2-25] | 4 (90%-99% herbicidal effect, phytotoxicity) | 4 (90%-99% herbicidal effect, phytotoxicity) | 4 (90%-99% herbicidal effect, phytotoxicity) | 4 (90%-99% herbicidal effect, phytotoxicity) | 4 (90%-99% herbicidal effect, phytotoxicity)
3 | CCCCOC(=O)N(c1ccccc1CN1CCC(C)COC1=O)S(=O)(=O)C(F)(F)F (racemic) [2-27] | 4 (90%-99% herbicidal effect, phytotoxicity) | 4 (90%-99% herbicidal effect, phytotoxicity) | 4 (90%-99% herbicidal effect, phytotoxicity) | 4 (90%-99% herbicidal effect, phytotoxicity) | 4 (90%-99% herbicidal effect, phytotoxicity)
4 | CC1CCN(Cc2ccccc2N(C(=O)OCC(Cl)(Cl)Cl)S(=O)(=O)C(F)(F)F)C(=O)OC1 (racemic) [2-34] | 4 (90%-99% herbicidal effect, phytotoxicity) | 4 (90%-99% herbicidal effect, phytotoxicity) | 4 (90%-99% herbicidal effect, phytotoxicity) | 4 (90%-99% herbicidal effect, phytotoxicity) | 4 (90%-99% herbicidal effect, phytotoxicity)
5 | CCOC(=O)N(c1ccccc1CN1CCC(C)(c2ccccc2F)OC1=O)S(=O)(=O)C(F)(F)F (racemic) [Compound 1-430] | 5 (100% herbicidal effect, phytotoxicity) | 5 (100% herbicidal effect, phytotoxicity) | 4 (90%-99% herbicidal effect, phytotoxicity) | 5 (100% herbicidal effect, phytotoxicity) | 4 (90%-99% herbicidal effect, phytotoxicity)
6 | COC(=O)N(c1ccccc1CN1CCC(C)(c2c(F)cccc2F)OC1=O)S(=O)(=O)C(F)(F)F (racemic) [Compound 1-440] | 4 (90%-99% herbicidal effect, phytotoxicity) | 5 (100% herbicidal effect, phytotoxicity) | 4 (90%-99% herbicidal effect, phytotoxicity) | 5 (100% herbicidal effect, phytotoxicity) | 4 (90%-99% herbicidal effect, phytotoxicity)
7 | CCOC(=O)N(c1ccccc1CN1CCC(C)(c2c(F)cccc2F)OC1=O)S(=O)(=O)C(F)(F)F (racemic) [Compound 1-441] | 5 (100% herbicidal effect, phytotoxicity) | 5 (100% herbicidal effect, phytotoxicity) | 4 (90%-99% herbicidal effect, phytotoxicity) | 5 (100% herbicidal effect, phytotoxicity) | 5 (100% herbicidal effect, phytotoxicity)
8 | CCC1(C(C)C)CCN(Cc2ccccc2NS(=O)(=O)C(F)(F)F)C(=O)O1 (racemic) [Compound 1-450] | 5 (100% herbicidal effect, phytotoxicity) | 5 (100% herbicidal effect, phytotoxicity) | 4 (90%-99% herbicidal effect, phytotoxicity) | 5 (100% herbicidal effect, phytotoxicity) | 4 (90%-99% herbicidal effect, phytotoxicity)
9 | CCOC(=O)N(c1ccccc1CN1CCC(CC)(C(C)C)OC1=O)S(=O)(=O)C(F)(F)F (racemic) [Compound 1-452] | 5 (100% herbicidal effect, phytotoxicity) | 5 (100% herbicidal effect, phytotoxicity) | 4 (90%-99% herbicidal effect, phytotoxicity) | 5 (100% herbicidal effect, phytotoxicity) | 4 (90%-99% herbicidal effect, phytotoxicity)
10 | CCC1(C(C)C)CCN(Cc2ccccc2N(C(=O)OCC(C)C)S(=O)(=O)C(F)(F)F)C(=O)O1 (racemic) [Compound 1-455] | 5 (100% herbicidal effect, phytotoxicity) | 5 (100% herbicidal effect, phytotoxicity) | 4 (90%-99% herbicidal effect, phytotoxicity) | 5 (100% herbicidal effect, phytotoxicity) | 5 (100% herbicidal effect, phytotoxicity)
11 | CCOC(=O)N(c1ccccc1CN1CCC(C)(Cc2ccccc2F)OC1=O)S(=O)(=O)C(F)(F)F (racemic) [Compound 1-463] | 5 (100% herbicidal effect, phytotoxicity) | 5 (100% herbicidal effect, phytotoxicity) | 4 (90%-99% herbicidal effect, phytotoxicity) | 5 (100% herbicidal effect, phytotoxicity) | 4 (90%-99% herbicidal effect, phytotoxicity)
12 | CCCC1(CC)CCN(Cc2ccccc2NS(=O)(=O)C(F)(F)F)C(=O)O1 (racemic) [Compound 1-494] | 5 (100% herbicidal effect, phytotoxicity) | 5 (100% herbicidal effect, phytotoxicity) | 4 (90%-99% herbicidal effect, phytotoxicity) | 5 (100% herbicidal effect, phytotoxicity) | 4 (90%-99% herbicidal effect, phytotoxicity)
13 | CC(C)COC(=O)N(c1ccccc1CN1CCC(C)(C(F)(F)F)OC1=O)S(=O)(=O)C(F)(F)F (centres unmarked) [Compound 1-85] | 4 (90%-99% herbicidal effect, phytotoxicity) | 4 (90%-99% herbicidal effect, phytotoxicity) | 4 (90%-99% herbicidal effect, phytotoxicity) |  | 4 (90%-99% herbicidal effect, phytotoxicity)
14 | CCOCN(c1ccccc1CN1CCC(CC)(C(F)(F)F)OC1=O)S(=O)(=O)C(F)(F)F (centres unmarked) [Compound 1-100] | 4 (90%-99% herbicidal effect, phytotoxicity) | 5 (100% herbicidal effect, phytotoxicity) |  | 4 (90%-99% herbicidal effect, phytotoxicity) | 4 (90%-99% herbicidal effect, phytotoxicity)
15 | CC(C)COC(=O)N(c1ccccc1CN1CCC(c2ccccc2)(C2CC2)OC1=O)S(=O)(=O)C(F)(F)F (centres unmarked) [Compound 1-188] | 4 (90%-99% herbicidal effect, phytotoxicity) | 4 (90%-99% herbicidal effect, phytotoxicity) | 4 (90%-99% herbicidal effect, phytotoxicity) |  | 4 (90%-99% herbicidal effect, phytotoxicity)
16 | CCOC(=O)N(c1ccccc1CN1CCC(c2ccccc2)OC1=O)S(=O)(=O)C(F)(F)F (centres unmarked) [Compound 1-241] |  | 5 (100% herbicidal effect, phytotoxicity) | 4 (90%-99% herbicidal effect, phytotoxicity) | 5 (100% herbicidal effect, phytotoxicity) | 4 (90%-99% herbicidal effect, phytotoxicity)
17 | CCOCN(c1ccccc1CN1CCC(c2ccccc2C)OC1=O)S(=O)(=O)C(F)(F)F (centres unmarked) [Compound 1-292] |  | 5 (100% herbicidal effect, phytotoxicity) | 4 (90%-99% herbicidal effect, phytotoxicity) | 5 (100% herbicidal effect, phytotoxicity) | 4 (90%-99% herbicidal effect, phytotoxicity)
18 | CCOCN(c1ccccc1CN1CCC(c2ccccc2C(F)(F)F)OC1=O)S(=O)(=O)C(F)(F)F (centres unmarked) [Compound 1-303] |  | 5 (100% herbicidal effect, phytotoxicity) | 4 (90%-99% herbicidal effect, phytotoxicity) | 5 (100% herbicidal effect, phytotoxicity) | 4 (90%-99% herbicidal effect, phytotoxicity)
19 | CCOC(=O)N(c1ccccc1CN1CCC(C(F)(F)F)(C(F)(F)F)OC1=O)S(=O)(=O)C(F)(F)F [Compound 1-340] | 4 (90%-99% herbicidal effect, phytotoxicity) | 5 (100% herbicidal effect, phytotoxicity) | 4 (90%-99% herbicidal effect, phytotoxicity) |  | 4 (90%-99% herbicidal effect, phytotoxicity)
20 | CCC1(C(F)(F)F)CCN(Cc2ccccc2N(C(=O)OCC(Cl)(Cl)Cl)S(=O)(=O)C(F)(F)F)C(=O)O1 (centres unmarked) [Compound 1-416] | 5 (100% herbicidal effect, phytotoxicity) | 5 (100% herbicidal effect, phytotoxicity) | 4 (90%-99% herbicidal effect, phytotoxicity) |  | 5 (100% herbicidal effect, phytotoxicity)
